Values quoted from earlier work as cited in patent US20230309918A1, “TREATING PATHOGENIC INFECTIONS” (priority 2020, published 2023).

Assays:
Borrelia burgdorferi = settings: one animal study (Pothineni et al., Sci Rep 2020)
NF-κB = settings: pro-inflammatory signaling pathway involved in Lyme-induced inflammation
HSV-1 IE gene expression = settings: diminishes the ability of the virus to launch the lytic infectious cycle
[1] = in vivo
[2] = kidneys

With `CC1(C)S[C@@H]2[C@H](NC(=O)[C@H](NC(=O)N3CCNC3=O)c3ccccc3)C(=O)N2[C@H]1C(=O)O` [azlocillin] as the compound, how does the “killing of disease-causing bacteria Borrelia burgdorferi” value (Borrelia burgdorferi) read?
The value was “completely kills off”.

With `COc1cc(/C=C/C(=O)CC(=O)/C=C/c2ccc(O)c(OC)c2)ccc1O` [Curcumin] as the compound, how does the “activation of NF-κB” value (NF-κB) read?
Its value is “blocking the activation of NF-κB”.

What about the “effect on HSV-1 IE gene expression” value (HSV-1 IE gene expression) of the same compound?
Its value is “affect HSV-1 IE gene expression”.

And the oral bioavailability [1]?
The oral bioavailability was “poor”.

With `O=c1c(O)c(-c2ccc(O)c(O)c2)oc2cc(O)cc(O)c12` [Quercetin] as the compound, how does the solubility in water read?
The solubility in water was “poorly soluble”.

With `Nc1nc2c(ncn2COCCO)c(=O)[nH]1` [Acyclovir] as the compound, how does the toxic side effects [2] read?
The toxic side effects was “toxic side effects in the kidneys”.
